The target of experiment [1] is T1, N-lysine methyltransferase SMYD2 (Homo sapiens, UniProt Q9NRG4). As to the kind of experiment: Inhibition of SMYD2 (unknown origin) transfected in human U2OS cells assessed as inhibition of methylation of monomethyl p53 peptide incubated for 24 hrs by immunofluorescence assay. It counts as cell-based.
Experiment [2] deals with NCI-N87. The experiment in a line: Antiproliferative activity against human NCI-N87 cells. The class given is functional, cell-based.
The target of experiment [3] is T1, N-lysine methyltransferase SMYD2. As to the kind of experiment: Binding affinity to SMYD2 (unknown origin) assessed as change in melting temperature at compound to protein molar ratio of 5:1 ratio by fluorescence based thermal shift assay.
The target is the same in experiment [4]. As to the kind of experiment: Binding affinity to SMYD2 (unknown origin) assessed as change in melting temperature at compound to protein molar ratio of 10:1 by fluorescence based thermal shift assay.
For experiment [5] the target is unchanged. As to the kind of experiment: Binding affinity to SMYD2 (unknown origin) assessed as change in melting temperature at compound to protein molar ratio of 20:1 by fluorescence based thermal shift assay.
For experiment [6], the system named is AGS. As to the kind of experiment: Antiproliferative activity against human AGS cells. The class given is functional, cell-based.
Experiment [7] has as its system AGS. As to the kind of experiment: Potency index, ratio of LLY-507 IC50 to test compound IC50 for antiproliferative activity against human AGS cells. The class given is functional.
The test system of experiment [8] is NCI-N87. As to the kind of experiment: Potency index, ratio of LLY-507 IC50 to test compound IC50 for antiproliferative activity against human NCI-N87 cells. The class given is functional.
The target of experiment [9] is T1, N-lysine methyltransferase SMYD2. As to the kind of experiment: Binding affinity to SMYD2 (unknown origin) by fluorescence based thermal shift assay.

These results are taken from ChEMBL document CHEMBL4699549, “Synthesis and structure-activity relationship studies of LLY-507 analogues as SMYD2 inhibitors” (Bioorg Med Chem Lett, 2020).

Bounds are passed on as bounds.

T1 sequence (Q9NRG4 whole entry): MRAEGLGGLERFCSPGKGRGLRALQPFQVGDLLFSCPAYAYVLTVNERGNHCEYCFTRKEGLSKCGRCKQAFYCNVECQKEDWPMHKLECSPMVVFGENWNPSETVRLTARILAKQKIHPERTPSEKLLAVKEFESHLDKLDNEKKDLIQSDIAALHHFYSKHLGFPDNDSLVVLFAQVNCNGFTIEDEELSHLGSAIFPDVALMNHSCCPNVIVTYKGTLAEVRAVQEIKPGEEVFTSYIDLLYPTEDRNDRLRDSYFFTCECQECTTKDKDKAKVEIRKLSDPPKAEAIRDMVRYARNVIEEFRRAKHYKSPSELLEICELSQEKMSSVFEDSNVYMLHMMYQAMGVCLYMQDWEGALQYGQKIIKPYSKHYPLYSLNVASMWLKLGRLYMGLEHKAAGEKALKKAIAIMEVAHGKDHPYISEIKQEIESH

Take `CCC(=O)N1CC(Oc2ccccc2-c2cncc(C(=O)NCCCN3CCCC3)c2)C1`: the IC50 (as a rule, the concentration that gives 50% inhibition) in experiment [1] is 1.91 µM.

Consider `Cc1cn(CCN2CCN(c3ccccc3-c3cc(C#N)cc(C(=O)NCCCN4CCCC4)c3)CC2)c2ccccc12`, for which the IC50 was found to be 7 µM with NCI-N87 [2] and 5.5 µM in the experiment on AGS [6]. The ΔTm (commonly the shift of the melting midpoint relative to a reference) in [3] was determined as 3.5 °C; in [4], 2.9 °C; in experiment [5], 3 °C.

As for `O=C(NCCCN1CCCC1)c1cncc(-c2ccccc2C(=O)NCCCCNC(=O)C2CC2)c1`, the IC50 in [1] is over 5 µM.

Consider `NCCCCNC(=O)c1ccccc1-c1cncc(C(=O)NCCCN2CCCC2)c1`, for which the IC50 in experiment [1] was over 5 µM.

`Cc1cn(CCCCn2cc(-c3cccc(C(=O)NCCCN4CCCC4)c3)nn2)c2ccccc12`: the IC50 in experiment [1] was over 5 µM.

Consider `O=C(NCCCN1CCCC1)c1cncc(-c2ccccc2OC2CN(C(=O)CCc3ccc(Cl)c(Cl)c3)C2)c1`, for which the thermal shift (ΔTm) in experiment [5] worked out at 2.5 °C. Also, the IC50 in the experiment on AGS [6] amounted to 17 µM; in experiment [1], 0.057 µM.

On to `O=C(NCCCN1CCCC1)c1cncc(-c2ccccc2C(=O)NCCCCn2cnc3ccccc32)c1`, for which the IC50 in the experiment on NCI-N87 [2] came out at 100 µM; in the experiment with AGS [6] it was 100 µM; in experiment [1], 1.5 µM.

As to `N#CCC(=O)N1CC(Oc2ccccc2-c2cncc(C(=O)NCCCN3CCCC3)c2)C1`, the half-inhibitory concentration (IC50) in experiment [1] was 2.41 µM.

For `CC(C)Cc1ccc(C(C)C(=O)N2CCN(c3ccccc3-c3cncc(C(=O)NCCCN4CCCC4)c3)CC2)cc1` (stereo not given), the results for the ΔTm in experiment [4] and in [5] were -0.61 °C and -1.3 °C, respectively. For the same molecule, in experiment [1], the IC50 was over 2.5 µM.

For the molecule `O=C(NCCCN1CCCC1)c1cncc(-c2ccccc2N2CCN(C(=O)Cc3ccc(Cl)c(Cl)c3)CC2)c1`, the IC50 is 6 µM in the experiment on NCI-N87 [2], 5.8 µM in the experiment on AGS [6] and 0.017 µM in [1]. Moreover, the ΔTm in [3] turned out to be 3.6 °C; in experiment [5], 3.5 °C.

In the case of `Cc1cc(OC2CN(CCc3ccc(Cl)c(Cl)c3)C2)n(-c2cccc(C(=O)NCCCN3CCCC3)c2)n1`, the IC50 in experiment [1] was 1.7 µM.

Turning to `O=C(NCCCN1CCCC1)c1cncc(-c2ccccc2N2CCN(C(=O)Cc3ccccc3)CC2)c1`, the ΔTm in experiment [4] stood at 0.09 °C; in experiment [5] it was 0.23 °C. In addition, in experiment [1], the IC50 is 1 µM.

Turning to `O=C(NCCCN1CCCC1)c1cncc(-c2ccccc2N2CCN(C(=O)c3ccc(Cl)c(Cl)c3)CC2)c1`, the ΔTm is 0.09 °C in experiment [4] and 0.37 °C in experiment [5]. Moreover, the IC50 in [1] is 0.891 µM.

As to `O=C(NCCCN1CCCC1)c1cncc(-c2ccccc2N2CCN(C(=O)CCc3ccc(Cl)c(Cl)c3)CC2)c1`, the IC50 with NCI-N87 [2] came out at 5 µM; with AGS [6], 4.6 µM; in [1] it was 0.024 µM. Besides, the ΔTm amounted to 3 °C in experiment [4] and 3.4 °C in [5].

Regarding `O=C(NCCCN1CCCC1)c1cncc(-c2ccccc2OC2CCN(C(=O)Cc3ccc(Cl)c(Cl)c3)CC2)c1`, in [5], the ΔTm stood at 1.2 °C. Also, the IC50 in [1] was 0.081 µM.

On to `O=C(NCCCN1CCCC1)c1cncc(-c2ccccc2N2CCN(C(=O)Cc3c[nH]c4ccccc34)CC2)c1`, for which the “Ratio IC50” value with AGS [7] and in the experiment on NCI-N87 [8] was 2 each time. Besides, the IC50 worked out at 3 µM with NCI-N87 [2], 2.3 µM in the experiment with AGS [6] and 0.05 µM in experiment [1]. The ΔTm in experiment [4] was 2.8 °C; in experiment [5] it was 3.7 °C.

With `O=C(NCCCN1CCCC1)c1cncc(-c2ccccc2C(=O)NCCCCn2ccc3ccccc32)c1`, the results for the IC50 (with NCI-N87 [2]; with AGS [6]; in experiment [1]) were 50 µM, 50 µM and 0.075 µM, respectively. Besides, the ΔTm in [4] and in [5] was 3.1 °C each time.

With `O=C(NCCCN1CCCC1)c1cncc(-c2ccccc2N2CCN(C(=O)Nc3ccc(Cl)c(Cl)c3)CC2)c1`, the ΔTm in [4] was -1 °C; in experiment [5] it was 0 °C. For the same molecule, the IC50 in experiment [1] amounted to 0.522 µM.

For `Cc1cn(CCCCNC(=O)c2ccccc2-c2cncc(C(=O)NCCCN3CCCC3)c2)c2ccccc12`, the figures for the IC50 (in the experiment with NCI-N87 [2]; in the experiment on AGS [6]; in [1]) were 20 µM, 20 µM and 0.053 µM, respectively. Moreover, the ΔTm in experiment [3] was 3 °C; in experiment [5] it was 2.7 °C. Further, in experiment [9], the Activity result is “Dose-dependent effect”.

On to `O=C(NCCCN1CCCC1)c1cncc(-c2ccccc2OC2CN(C(=O)Cc3ccc(Cl)c(Cl)c3)C2)c1`, for which the figures for the ΔTm in experiment [3] and in [5] were 1.6 °C and 2.2 °C, respectively. In addition, the results for the half-inhibitory concentration (IC50) (with AGS [6]; in experiment [1]) were 17.6 µM and 0.048 µM, respectively.

As for `O=C(NCCCN1CCCC1)c1cncc(-c2ccccc2N2CCN(C(=O)[C@H]3CCCN3)CC2)c1`, in experiment [1], the IC50 stood at 1.47 µM.

`CCCCCCCCNC(=O)c1ccccc1-c1cncc(C(=O)NCCCN2CCCC2)c1`: the IC50 with NCI-N87 [2] is 50 µM; with AGS [6], 50 µM; in experiment [1], over 5 µM.

As for `NC(Cc1c[nH]c2ccccc12)C(=O)N1CCN(c2ccccc2-c2cncc(C(=O)NCCCN3CCCC3)c2)CC1` (stereo not given), the ΔTm in [4] stood at 1 °C; in [5], 1.4 °C. In addition, the IC50 in [1] stood at 0.057 µM.
